Experimental data published in US20090117190A1, “SUSTAINED-RELEASE PREPARATION” (Nissan Chemical Industries, Ltd., priority 2005, published 2009).
Structures can show the parent of a compound that is named as a salt.

Key:
[1] = elution test (paddle method, Japanese Pharmacopoeia Disintegration Test Solutions 1 and 2); type: physicochemical
Method: The test conditions are as follows. Test solutions: Japanese Pharmacopoeia Disintegration Test Solution 1 (pH 1.2) 900 mL, Japanese Pharmacopoeia Disintegration Test Solution 2 900 mL (pH 6.8)+0.1% Tween 80 Paddle rotational speed: 50 rpm Liquid temperature: 37° C.

[2] = absorbability (bioavailability) of oral formulations in a dog; conditions: in vivo, during fasting
Source text: (§1) On the other hand, the present inventors have heretofore conducted various studies on oral formulations of 4-bromo-6-[3-(4-chlorophenyl)propoxy]-5-(3-pyridylmethylamino)-3(2H)-pyridazinone (hereinafter referred to simply as Compound A) or its salt.

[3] = solubility in water as a function of pH; type: physicochemical
Source text: as §1

Structure (SMILES) | difference in the elution rate between Solution 1 (pH 1.2) and Solution 2 (pH 6.8) containing 0.1% Tween 80 ([1]; 900 mL, 37° C., paddle 50 rpm) | elution rate ([1]; Japanese Pharmacopoeia Disintegration Test Solution 2 (pH 6.8) + 0.1% Tween 80, after 6 hours, 37° C., paddle 50 rpm) | solubility indicated by the elution test ([1]; in the vicinity of the pH in the intestine (Solution 2 + 0.1% Tween 80)) | bioavailability [2] | solubility in water, dependence on pH ([3]; boundary in the vicinity of pH4.0) | solubility in water ([3]; in the vicinity of the pH in the intestine)
O=c1[nH]nc(OCCCc2ccc(Cl)cc2)c(NCc2cccnc2)c1Br [hydrochloride of Compound A, 4-bromo-6-[3-(4-chlorophenyl)propoxy]-5-(3-pyridylmethylamino)-3(2H)-pyridazinone] | substantial difference | < 20% | hardly soluble |  |  | 
O=c1[nH]nc(OCCCc2ccc(Cl)cc2)c(NCc2cccnc2)c1Br [Compound A, 4-bromo-6-[3-(4-chlorophenyl)propoxy]-5-(3-pyridylmethylamino)-3(2H)-pyridazinone] |  |  |  | ~10% | decreases in the vicinity of pH4.0 as a boundary | hardly soluble in water
